Reference: patent publication US10399931B2, “Octahydroanthracene compound, preparation method and application thereof” (SHANDONG XINHUA PHARMACEUTICAL CO., LTD., priority 2016, dated 2019)

Test system: SYP, PSD95 and GAP43
Assay: Western blot of synaptic-related proteins in APP/PS1 mice
Type: in vivo
Experimental: After the behavioral experiment, the animals were anesthetized with an intraperitoneal injection of 3.5% chloral hydrate and cut off the heads quickly to take out the brains. The hippocampus and cortex of the brain were separated on ice, and then weighed and quickly frozen with liquid nitrogen, placed in a refrigerator at −80° C. for standby application.
The tissue lysate (5 μL PMSF protease inhibitor per mL of lysate) was added to the frozen brain tissue at a ratio of […] (6 mL/g tissue), and ultrasonically homogenized in an ice bath. After homogenization, the tissue homogenate was placed in crushed ice for 30 min, and then centrifuged at 12,000×g for 20 min at 4° C. The supernatant (about 200 μL) was taken and stored in a refrigerator at −80° C. for later use. A portion of the supernatant was taken for protein quantification.
According to the kit instruction, BCA working reagent was prepared by mixing reagent A with reagent B at a ratio of 50:1 thoroughly. The BCA working reagent was freshly prepared for use at room temperature with a stable period of 24 h. […] (5) The absorbance of the protein (at a wavelength of 540 nm) was determined by a microplate reader. (6) The standard curve was made by Excel, and the concentration of the detected protein was calculated based on the standard curve. […]

CC1(C)CCC(C)(C)c2c1cc1c(c2NC(=O)c2ccc(NC(=O)NCCN)cc2)C(C)(C)CCC1(C)C [OAB-14, 1-(2-amino) ethyl-3-{4-[(1,1,4,4,5,5,8,8-octamethyl-1,2,3,4,5,6,7,8-octahydro-9-anthryl)carbamoyl]phenyl} urea]
Expression of synaptic-related proteins SYP, PSD95 and GAP43 (100 mg/kg group): significantly increased | Expression of synaptic-related proteins SYP, PSD95 and GAP43 (200 mg/kg group): significantly increased
